# Reference: US8293979B2, “Weed controller metabolism proteins, genes, thereof and use of the same” (Sumitomo Chemical Company, Limited, priority 2001, dated 2012)
# Experiments:
# [1] = test system: present invention protein (A12); assay: Detection of the ability to convert compound (II) to compound (III), E. coli pKSN1618F extract; format: in vitro ADME, Streptomyces tsusimaensis IFO 13782; settings: 3 ppm of compound (II) labeled with 14C, components A, B, 10 minutes at 30° C.
# Method: Reaction solutions of 30 μl were prepared and maintained for 10 minutes at 30° C. The reaction solutions consisted of a 0.1M potassium phosphate buffer (pH7.0) containing 3 ppm of compound (II) labeled with ^14C, 2 mM of β-NADPH (hereinafter, referred to as “component A”) (Oriental Yeast Company), 2 mg/ml of a ferredoxin derived from spinach (hereinafter referred to as “component B”) (Sigma Company), 0.1 U/ml of ferredoxin reductase (hereinafter, referred to as “component C”) (Sigma Company) and 23 μl of the supernatant fraction recovered in Example 32(2). Similarly to Example 4(3), the reaction solutions after the maintenance were extracted with ethyl acetate and the extracted layers were TLC analyzed. […] A spot corresponding to compound (III) was detected from the reaction solution containing E. coli pKSN849AF extract. In contrast, such a spot was not detected from the reaction solution containing E. coli pKSN2 extract.
# Reaction solutions of 30 μl were prepared and maintained for 10 minutes at 30° C. […] The reaction solutions after the maintenance were extracted with ethyl acetate and the extracted layers were TLC analyzed. […] A spot corresponding to compound (III) was detected from the reaction solution containing E. coli pKSN1618F extract. In contrast, such a spot was not detected from the reaction solution containing E. coli pKSN2 extract.
# [2] = test system: leaf pieces derived from the tobacco to which the present invention DNA (A2) was introduced; assay: Herbicidal damage of tobacco leaf pieces on MS agar medium containing compound (II); format: cell-based; settings: MS agar medium containing 0.1 mg/L of compound (II), in the light at room temperature, 7th day of culturing
# Excerpt: Leaf pieces of sterily cultured tobacco were infected with each of the agrobacterium strain bearing pBI-NdG6-rSt-923 and the agrobacterium strain bearing pBI-NdG6-rSt12-923. Tobaccos in which the present invention DNA (A2) has been introduced were obtained under the procedures similar to the methods described in Example 19.
# Three (3) leaves were taken from the obtained transgenic tobacco. Each leaf was divided into 4 pieces in which each piece was 5 to 7 mm wide. Each of the leaf pieces were planted onto MS agar medium containing 0.1 mg/L of compound (II) and cultured in the light at room temperature. On the 7th day of culturing, the herbicidal damage of each of the leaf pieces was observed.
smiles,measurement,setting,value
C[C@@H](Oc1cc(-n2c(=O)cc(C(F)(F)F)n(C)c2=O)c(F)cc1Cl)C(=O)O [compound (II)],spot corresponding to compound (III) labeled with 14C (TLC),[1],detected
same,herbicidal damage of the leaf pieces,[2],grew continuously
